How the values were obtained:
[1] = animal toxicology studies; cited from earlier work
[2] = In vitro TIM gastrointestinal system, fasted vs fed; type: in vitro ADME, human; conditions: formulated according to the invention
Description: As discussed, this is particularly beneficial for ADHD patients, for this initial amount of mazindol provided increases patients' mental alertness and acuity at the start of their day (e.g., driving to work, starting school).

[3] = Pharmacokinetics of immediate-release mazindol after oral administration; type: in vivo, human; conditions: immediate release formulation; from half-life
Description: In U.S. Pat. No. 8,293,779, it is disclosed that, after single or repeated oral administration, mazindol is absorbed with a time to maximum concentrations (Tmax) of 2-4 hours.
Such immediate release compositions thus require twice daily administration, which limits compliance in the special case of children of school age, as the second administration is often requested to be done at midday, i.e. during school time. Even given the fact that the immediate release tablet undergoes complete in vitro dissolution within 1 hour, the time to maximum concentrations (Tmax) occurs at 3-4 hours after drug administration in healthy volunteers (Kim 2009). Rapid initial absorption will allow the earlier achievement of adequate systemic exposure to achieve desired efficacy (e.g., administer early and have onset of efficacy 1-2 hours later, when patient is at school or work).

[4] = cited from earlier work
[5] = cited from earlier work; remark: listed apart in the source
[6] = clinical pharmacokinetic studies; cited from earlier work

OC1(c2ccc(Cl)cc2)c2ccccc2C2=NCCN21 (centres unmarked) [mazindol, 5-(4-chlorophenyl)-2,5-dihydro-3H-imadazo[2,1-a]isoindol-5-ol]
carcinogenic effect [1]: no carcinogenic effect
mutagenic effect [1]: no mutagenic effect
toxic potential [1]: very low
toxicology effect in reproduction [1]: no toxicology effect in reproduction
Tmax in the fed state compared to the fasted state [2]: delayed, compared to the fasted state, by one hour or more
time to reach steady-state concentrations [3]: 30 to 55 h
hydrolytic stability ([4]; moderate temperatures, water / neutral and alkaline aqueous solutions, human plasma): undergoes hydrolysis at moderate temperatures with minimal amount of water
solubility as function of pH ([4]; most soluble at stomach pH, least in the colon): decreases with increasing pH
dose dependence of pharmacokinetics ([5]; doses between 1 mg/day and 4 mg/day, immediate-release formulations): linear (independent of the dose)
time to maximum concentrations (Tmax) ([5]; single or repeated oral administration, U.S. Pat. No. 8,293,779): 2 to 4 h
absorption in the colon [6]: not likely to be absorbed in the colon
